# Measurements from patent US12594354B2, “Compositions for visualization of cleaning efficacy and product coverage” (priority 2011, dated 2026).
# Structures can show the parent of a compound that is named as a salt.
# Tests used:
# Type in all cases: physicochemical
# [1] = Visible fluorescence under short (254 nm) and long (360 nm) ultraviolet light; settings: in distilled water; visually in dark, 9 watt UV lamp at 6 inches
# Description: All three tracer substances Riboflavin, Folic Acid and Quinine have unique molecular structures that enable them to mix into base solutions with varying polar and non polar charges. Studies by the authors of the current embodiment have also shown that the substances show an affinity for organic matter residue (e.g. proteins, fats, oils, soil, mineral deposits, etc.). Riboflavin (B2),Folic Acid (B9) and Quinine are approved food additives (Codex General Standard for Food Additives, Codex STAN 192; Code of Federal Regulations Title 21 Sec. 184.1695; Sec. 73.450; Sec. 104.20, Sec. 101.9 and Sec. 172.575). […] Experiments by the inventors have shown that when Riboflavin and Quinine are combined in solution the two GRAS or food additive fluorophores fluoresce synergistically under long and short wave ultraviolet light. [table]
# [2] = Riboflavin fluorescence persistence in sanitizer and bleach base materials
# Description: FIG. 3 is a flow chart showing how the GRAS or food additive composition is mixed with sanitizer(s) or cleaning chemical(s) for visualization of cleaning efficacy so those trained in the art can validate or verify the hygienic condition of equipment or environments after cleaning. The steps involved with making the combined fluorescent additive and base material invention solution include; (1) select the base material and the specific volume that will be used for the application. It is important to know the composition of the base material, its physical properties and establish a set volume. For purposes of this embodiment, base material can be potable water or any of the various sanitation chemicals that has been approved for use in the food, beverage, pharmaceutical, feed industry by appropriate regulatory authorities. The base material will be approximately 95% of the total end product. Potable tap water is an excellent base material for combining with the embodiment composition to produce a solution that can be applied to equipment at any stage of the cleaning process prior final rinse. Quat sanitizers, liquid soaps and detergents have also been shown by the authors to be excellent base materials. Riboflavin mixed easily into solution when 1,000 ppm was added to KayQuat II (>1,000 ppm quaternary ammonia). Fluorescence was intense from day one through day 270 and has not diminished at the time of this publication. Similar tests were performed on Ajax Liquid Soap with Bleach Alternative with similar results.
# It should be noted that bench top studies with concentrate hypochlorite solutions have been shown by the authors to rapidly quench Riboflavin fluorescence. […] Highly alkaline ammonia base material produced similar results. The authors were concerned that chlorinated alkaline detergents and/or foaming cleaners would quench the fluorescence of the embodiment composition so tests were performed to determine the effect.
# [3] = Detection sensitivity of tracers by UV fluorescence and spectrophotometer; settings: for sensitivity of spectrophotometer absorption and transmission detection: tracers vs control samples
# Description: One method of detecting the presence of the food grade vitamin tracer(s) is by exciting the mixture, treated area or sample swab with ultraviolet light so that the vitamins fluoresce. Riboflavin fluorescence is the identifier for visual observations. Folic Acid fluoresces, but not in the visible spectrum. The color of light is related to the wavelength or frequency of the light. Visible light—to which our eyes are most sensitive—falls in the wavelength range of about 400 to 750 nm. In the absence of visible light and when Riboflavin is excited by long-wave ultraviolet light (maximum lambda=˜365 nm-below the visible spectrum) Riboflavin emits/fluoresces light waves in the visible spectrum (˜450 to 650) which are very distinguishable in the dark when the only other light source is from long (˜365 nm) and midrange (˜312 nm) ultraviolet light. This phenomenon enables visible detection of Riboflavin at levels as low as 1 ppm. It is well know that different compounds have unique absorption and transmission spectra. Another method of quantifying the presence of the food grade vitamin tracers Riboflavin and Folic Acid is by use of a spectrophotometer whereby wavelength absorption and transmission results of known tracers Vs control samples provide characteristic spectra analysis that can be used to determine the absence or presence with sensitivity down to 1 ppm.
# [4] = 2,500 ppm added to a 30% solution of chlorine bleach
Compound,Visual Fluorescence Long Wave (360 nm) [1],Visual Fluorescence Short Wave (254 nm) [1],"Fluorescence from day one through day 270 ([2]; 1,000 ppm added to KayQuat II (>1,000 ppm quaternary ammonia))","fluorescence after 8 hours [2, 4]","fluorescence observed for up to 4 hours [2, 4]",visible detection level ([3]; excited by long (~365 nm) and midrange (~312 nm) UV in the dark) [ppm],sensitivity of spectrophotometer absorption and transmission detection [3] [ppm]
"C=C[C@H]1C[N@@]2CC[C@H]1C[C@H]2[C@H](O)c1ccnc2ccc(OC)cc12 [Quinine Sulfate, Dihydrate]",Moderate,Slight,,,,,
"Cc1cc2nc3c(=O)[nH]c(=O)nc-3n(C[C@H](O)[C@H](O)[C@H](O)CO)c2cc1C [50 ppm Riboflavin USP in distilled water, Riboflavin]",Moderate,Very Slight,,,,,
Cc1cc2nc3c(=O)[nH]c(=O)nc-3n(C[C@H](O)[C@H](O)[C@H](O)CO)c2cc1C [Riboflavin],,,intense,diminished completely,Slight,1,1
Nc1nc2ncc(CNc3ccc(C(=O)N[C@@H](CCC(=O)O)C(=O)O)cc3)nc2c(=O)[nH]1 [Folic Acid],,,,,,,1
